Two compounds from patent publication US20220356163A1, “SMALL MOLECULE INHIBITORS OF Id PROTEINS” (MEMORIAL SLOAN KETTERING CANCER CENTER, priority 2019, published 2022) can be followed below.

pIC50: −log10 of the molar value. Entries after “also recorded” stand apart in the source; their conditions may differ. Read-outs that look alike come from different tables or passages of the source.

The nature of series [1]: Aqueous solubility. The series is classed as physicochemical.
Series [2] concerns PDX-IBT. The series can be described thus: MTT assay, PDX-IBT. As to conditions: 24 h, PDX cell line, read-out: IC50 value after 24 hours of treatment. The series is classed as cell-based. An excerpt:
(§1) The 4T1 murine mammary tumor cell line and nine breast cancer cell lines representing the major breast cancer subtypes (ER+, HER2+, and TNBC) including MDA-MB-157, MDA-MB-436, MDA-MB-231, MDA-MB-453, MDA-MB-361, BT-474, SK-BR-3, MCF-7 and T47-D will be grown in RPMI or DMEM (Dulbecco's Modified Eagle Medium) media supplemented with 10% FBS (fetal bovine serum), 1% penicillin-streptomycin and 1% L-Glutamine. Patient derived xenograft cell lines BR7, BR11, and IBT will be established directly from breast cancer bone metastases specimens surgically resected from patients with informed consent. BR7 and BR11 specimens will be obtained from ER positive (HER2 negative and PR negative) metastatic breast cancer patients, while the IBT specimen will be obtained from a metastatic, triple negative breast cancer patient. Fresh tumor tissues will be quickly washed with ice cold PBS and minced into about 1-3 mm pieces in MEM medium (without FBS) using sterile razor blades. […] The cells will be treated with either 100 μM DMSO, AGX51, or a compound of the present technology such as AGX-A. The cell morphology and growth will be monitored daily for 1 week by microscopy for changes in morphology or cell death. […] Absorbance will then measured at 570 nm using a plate reader (Synergy 2, BioTek). […]
On the technique in general: Tetrazolium dyes change colour on reduction, which living cells bring about.

Series [3] concerns 4T1. The series can be described thus: MTT assay, 4T1. As to conditions: Mus musculus. The class given is cell-based.
From the text: as §1

Series [4] deals with T1, ID1 (Homo sapiens, UniProt P41134).
T1 sequence (P41134 1-155): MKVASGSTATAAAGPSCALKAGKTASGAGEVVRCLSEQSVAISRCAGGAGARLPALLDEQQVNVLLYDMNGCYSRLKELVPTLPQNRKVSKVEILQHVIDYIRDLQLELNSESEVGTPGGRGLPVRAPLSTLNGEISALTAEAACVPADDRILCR
The series can be described thus: Western blot for ID1 in HUVECs. The series is classed as cell-based. The arrangement: host or cells: HUVEC. As to conditions: 0-40 μM, 24 hours. On the procedure: (§2) Immunoblotting. For immunoblotting, cells were collected by trypsinization, washed with PBS and lysed in homogenization buffer (0.3 M sucrose, 10 mM Tris (pH 8.0), 400 mM sodium chloride, 3 mM magnesium chloride, 0.5% NP40/IGEPAL, 100 μg/mL Aprotinin+Protease inhibitor cocktail (Roche #11 836 153 001). Proteins were separated by SDS-PAGE, transferred to a membrane (LI-COR), probed with primary antibodies overnight at 4° C., and probed with secondary antibodies (LI-COR) for 1-2 hours at room temperature. Proteins were visualized using the LI-COR Odyssey Infrared Imaging detection system. The following primary antibodies were used Id1, Id2, Id3, Id4 (195-14, 9-2-8, 17-3, 82-12, respectively, all from Biocheck), Cyclin D1 (2978, Cell Signaling), Actin (A2066, Sigma), Tubulin (T4026, Sigma). Western blot quantification was carried out using channel 700 and channel 800 intensity data from Odyssey application software version 3.0.30 (LI-COR), subtracting blank values and normalizing to Tubulin.
The activity of AGX51 was tested on primary human umbilical vein endothelial cells (HUVECs) and the HCT116 colorectal cancer cell line, two cell types with different ID1-4 expression profiles. […] The effects of AGX51 on ID3 loss in HUVECs was diminished in the 20-40 μM range compared with ID1, consistent with the weaker perturbation observed in the CD spectra.
A general note: Immunoblotting shows a protein as a band on a membrane.

Series [5] concerns cholangiocarcinoma cells (SNU1079, SNU1196). Kind of series: AGX-A cyclodextrin formulations on cholangiocarcinoma cells (24 hour cell viability). The series is classed as cell-based. On the procedure: To overcome the issue DMSO posed, investigations were performed to develop a formulation that was compatible with AGX-A as well as well-suited for administration.
Ultimately, a particularly efficacious formulation employing 2-hydroxypropyl-β-cyclodextrin (“HPBCD”) was discovered. […] Representative data is illustrated in FIGS. 25A-25B which provide the results of 24 hour cell viability studies for SNU1079 cells and SNU1196 cells, respectively.

Series [6] deals with Id proteins. Kind of series: Western blot for Id1 in HCT116 and 4T1 cells (FIGS. 7C-7D). The series is classed as cell-based. The note with it: 24 hours. On the procedure:
The IC50 is indicated. […] The IC50 is indicated. […] Laser-induced choroidal neovascularization (NV) was induced in mice and they were treated by intravitreal injection with DMSO, 1 or 5 μg AGX-A, or 1 or 5 μg AGX51. On day 14 the animals were euthanized and area of CNV was measured (** indicates p<0.01, *** indicates p<0.0001 by ANOVA, error bars show SEM).
as §2

For `CCC(=O)N(CCC(c1ccc2c(c1)OCO2)c1ccccc1OC)Cc1ccccc1` (racemic) [AGX51, N-(3-(benzo[d][1,3]dioxol-5-yl)-3-(2-methoxyphenyl)propyl)-N-benzylpropionamide], in series [1], the water solubility result was “water insoluble”. Moreover, the negative logarithm of the IC50 (pIC50) in series [2] is 4.92; in series [3] (24 h, 4T1, MTT, read-out: IC50 value after 24 hours of treatment), 4.57; in series [3] (4T1 cells, FIG. 7D, read-out: IC50), 4.57. Moreover, the “concentration at which significant decrease in ID1 protein levels was observed” value in series [4] amounted to 10 µM.
On to `COc1ccccc1C(CCNCc1ccccc1)c1ccc(OC(C)C)cc1` (centres unmarked) [AGX-A, N-benzyl-3-(4-isopropoxyphenyl)-3-(2-methoxyphenyl)propan-1-anine], for which the “AGX-A activity against cholangiocarcinoma cells” value in series [5] (aqueous solution with HPBCD, 24 hour) was “preserving AGX-A activity”. In addition, the “AGX-A induced cell death” value in series [5] (formulations with sulfobutylether-β-cyclodextrin (CAPTISOL)) is “neutralized AGX-A induced cell death”. Further, the “Id protein levels in cells, concentration needed relative to AGX51” value in series [6] is on record as “reduced Id protein levels at lower concentrations than AGX51; also recorded: degraded Id proteins in cells at lower concentrations than AGX51”.

What is called pIC50 is −log10 of the IC50, conventionally taken in molar units.
